Molecules are shown by their SMILES.

In the experiment the target is T1, G12D-mutant human KRAS (amino acid residues 1-188) (Homo sapiens, UniProt P01116, G12D).
T1 construct: G12D or G12C-mutant human KRAS (amino acid residues 1-188) with FLAG tag; made in house; host or cells: E. coli
T1 sequence (P01116 1-188 isoform P01116-2 G12D): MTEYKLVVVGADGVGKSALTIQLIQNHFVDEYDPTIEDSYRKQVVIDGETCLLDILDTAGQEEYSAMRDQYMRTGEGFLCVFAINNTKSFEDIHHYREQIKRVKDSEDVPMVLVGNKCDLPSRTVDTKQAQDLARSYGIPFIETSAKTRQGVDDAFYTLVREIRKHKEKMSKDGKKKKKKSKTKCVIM
Nature of the experiment: KRAS Binding Disruption Assay (AlphaScreen; biotinylated KRpep-2d analogue or RAF1-RBD), G12D. As to conditions: KRAS G12D; geometric mean; read-out: KRAS GMean IC50 (uM) MUTATION: G12D. In outline:
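Compounds are titrated against 5-20 nM mutant KRAS and 5-20 nM of either a biotinylated KRpep-2d analogue or RAF1-RBD, incubated 1 h at 25° C. Disruption is detected as reduced Alpha signal after 1 h with donor and acceptor beads at 10 μg/mL.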
Turning to `OCC1(CNc2nc(N3C[C@H]4CC[C@@H](C3)N4)c3ccc(-c4cc(O)cc5ccccc45)c(F)c3n2)CC(F)(F)C1` [P-0579, 4-(4-((1R,5S)-3,8-diazabicyclo[3.2.1]octan-3-yl)-2-(((3,3-difluoro-1-(hydroxymethyl)cyclobutyl)methyl)amino)-8-fluoroquinazolin-7-yl)naphthalen-2-ol], the 50% inhibitory concentration (IC50) was in the range of 0.0001 to 10 µM.
`NCC1(COc2nc(N3C[C@H]4CC[C@@H](C3)N4)c3ccc(-c4cc(O)cc5ccccc45)c(F)c3n2)CC(F)(F)C1` [P-0580, 4-(2-((1-(aminomethyl)-3,3-difluorocyclobutyl)methoxy)-4-((1R,5S)-3,8-diazabicyclo[3.2.1]octan-3-yl)-8-fluoroquinazolin-7-yl)naphthalen-2-ol]: the IC50 was in the range of 0.0001 to 10 µM.
Next, `OCC1(CNc2nc(N3C[C@H]4CC[C@@H](C3)N4)c3ccc(-c4cc(O)cc5ccccc45)c(F)c3n2)COC1` [P-0581, 4-(4-((1R,5S)-3,8-diazabicyclo[3.2.1]octan-3-yl)-8-fluoro-2-(((3-(hydroxymethyl)oxetan-3-yl)methyl)amino)quinazolin-7-yl)naphthalen-2-ol]: 0.0001 to 10 µM; `OCC1(CNc2nc(N3C[C@H]4CC[C@@H](C3)N4)c3ccc(-c4cc(O)cc5ccccc45)c(F)c3n2)CC1` [P-0582, 4-(4-((1R,5S)-3,8-diazabicyclo[3.2.1]octan-3-yl)-8-fluoro-2-(((1-(hydroxymethyl)cyclopropyl)methyl)amino)quinazolin-7-yl)naphthalen-2-ol]: 0.0001 to 10 µM.
`OCC1(COc2nc(N3C[C@H]4CC[C@@H](C3)N4)c3ccc(-c4cc(O)cc5ccccc45)c(F)c3n2)CC(O)C1` (stereo partly drawn) [P-0583, 4-(4-((1R,5S)-3,8-diazabicyclo[3.2.1]octan-3-yl)-8-fluoro-2-((3-hydroxy-1-(hydroxymethyl)cyclobutyl)methoxy)quinazolin-7-yl)naphthalen-2-ol]: the IC50 was in the range of 0.0001 to 10 µM.
Turning to `OCC(COc1nc(N2C[C@H]3CC[C@@H](C2)N3)c2ccc(-c3cc(O)cc4ccccc34)c(F)c2n1)c1ccccc1` (stereo partly drawn) [P-0584, 4-(4-((1R,5S)-3,8-diazabicyclo[3.2.1]octan-3-yl)-8-fluoro-2-(3-hydroxy-2-phenylpropoxy)quinazolin-7-yl)naphthalen-2-ol], the IC50 was in the range of 0.0001 to 10 µM.
As for `CC(C)(C)C(CO)COc1nc(N2C[C@H]3CC[C@@H](C2)N3)c2ccc(-c3cc(O)cc4ccccc34)c(F)c2n1` (stereo partly drawn) [P-0585, 4-(4-((1R,5S)-3,8-diazabicyclo[3.2.1]octan-3-yl)-8-fluoro-2-(2-(hydroxymethyl)-3,3-dimethylbutoxy)quazolin-7-yl)naphthalen-2-ol], the IC50 was 0.0001 to 10 µM.
Turning to `CC(C)C(CO)COc1nc(N2C[C@H]3CC[C@@H](C2)N3)c2ccc(-c3cc(O)cc4ccccc34)c(F)c2n1` (stereo partly drawn) [P-0586, 4-(4-((1R,5S)-3,8-diazabicyclo[3.2.1]octan-3-yl)-8-fluoro-2-(2-(hydroxymethyl)-3-methylbutoxy)quinazolin-7-yl)naphthalen-2-ol], the IC50 lay within 0.0001 to 10 µM.
Turning to `OCC1(CNc2nc(N3C[C@H]4CC[C@@H](C3)N4)c3ccc(-c4cc(O)cc5ccccc45)c(F)c3n2)CCC1` [P-0587, 4-(4-((1R,5S)-3,8-diazabicyclo[3.2.1]octan-3-yl)-8-fluoro-2-(((1-(hydroxymethyl)cyclobutyl)methyl)amino)quinazolin-7-yl)naphthalen-2-ol], the half-inhibitory concentration (IC50) lay in the range of 0.0001 to 10 µM.
`OCC1(COc2nc(N3C[C@H]4CC[C@@H](C3)N4)c3ccc(-c4cc(O)cc5ccccc45)c(F)c3n2)CCCC1` [P-0588, 4-(4-((1R,5S)-3,8-diazabicyclo[3.2.1]octan-3-yl)-8-fluoro-2-((1-(hydroxymethyl)cyclopentyl)methoxy)quinazolin-7-yl)naphthalen-2-ol]: the concentration for half-maximal inhibition (IC50) fell in the range of 0.0001 to 10 µM.
As for `CN(C)CC(C)(C)COc1nc(N2C[C@H]3CC[C@@H](C2)N3)c2ccc(-c3cc(O)cc4ccccc34)c(F)c2n1` [P-0589, 4-(4-((1R,5S)-3,8-diazabicyclo[3.2.1]octan-3-yl)-2-(3-(dimethylamino)-2,2-dimethylpropoxy)-8-fluoroquinazolin-7-yl)naphthalen-2-ol], the IC50 is 0.0001 to 10 µM.
Turning to `CC(C)(CNS(C)(=O)=O)COc1nc(N2C[C@H]3CC[C@@H](C2)N3)c2ccc(-c3cc(O)cc4ccccc34)c(F)c2n1` [P-0590, N-(3-((4-((1R,5S)-3,8-diazabicyclo[3.2.1]octan-3-yl)-8-fluoro-7-(3-hydroxynaphthalen-1-yl)quinazolin-2-yl)oxy)-2,2-dimethylpropyl)methanesulfonamide], the IC50 was in the range of 0.0001 to 10 µM.
`CC(=O)NCC(C)(C)COc1nc(N2C[C@H]3CC[C@@H](C2)N3)c2ccc(-c3cc(O)cc4ccccc34)c(F)c2n1` [P-0591, N-(3-((4-((1R,5S)-3,8-diazabicyclo[3.2.1]octan-3-yl)-8-fluoro-7-(3-hydroxynaphthalen-1-yl)quinazolin-2-yl)oxy)-2,2-dimethylpropyl)acetamide]: the half-maximal inhibitory concentration (IC50) is 0.0001 to 10 µM.
For the compound `CC(C)(CNC(=O)OCc1ccccc1)COc1nc(N2C[C@H]3CC[C@@H](C2)N3)c2ccc(-c3cc(O)cc4ccccc34)c(F)c2n1` [P-0592, benzyl (3-((4-((1R,5S)-3,8-diazabicyclo[3.2.1]octan-3-yl)-8-fluoro-7-(3-hydroxynaphthalen-1-yl)quinazolin-2-yl)oxy)-2,2-dimethylpropyl)carbamate], the IC50 lay within 0.0001 to 10 µM.
The figure for `Cc1ccc2[nH]ncc2c1-c1c(F)cc2c(N3C[C@H]4CC[C@@H](C3)N4)nc(OCC34CCCN3CCC4)nc2c1F` [P-0593, 4-((1R,5S)-3,8-diazabicyclo[3.2.1]octan-3-yl)-6,8-difluoro-7-(5-methyl-1H-indazol-4-yl)-2-((tetrahydro-1H-pyrrolizin-7a(5H)-yl)methoxy)quinazoline] is 0.0001 to 10 µM; for `CC(=O)Nc1ccc(Cl)c(-c2c(F)cc3c(N4C[C@H]5CC[C@@H](C4)N5)nc(OCC45CCCN4CCC5)nc3c2F)c1` [P-0594, N-(3-(4-((1R,5S)-3,8-diazabicyclo[3.2.1]octan-3-yl)-6,8-difluoro-2-((tetrahydro-1H-pyrrolizin-7a(5H)-yl)methoxy)quinazolin-7-yl)-4-chlorophenyl)acetamide] it is 0.0001 to 10 µM.
The figure for `Nc1ccc(Cl)c(-c2c(F)cc3c(N4C[C@H]5CC[C@@H](C4)N5)nc(OCC45CCCN4CCC5)nc3c2F)c1` [P-0595, 3-(4-((1R,5S)-3,8-diazabicyclo[3.2.1]octan-3-yl)-6,8-difluoro-2-((tetrahydro-1H-pyrrolizin-7a(5H)-yl)methoxy)quinazolin-7-yl)-4-chloroaniline] is 0.0001 to 10 µM.
As to `Cc1ccc(N)cc1-c1c(F)cc2c(N3C[C@H]4CC[C@@H](C3)N4)nc(OCC34CCCN3CCC4)nc2c1F` [P-0596, 3-(4-((1R,5S)-3,8-diazabicyclo[3.2.1]octan-3-yl)-6,8-difluoro-2-((tetrahydro-1H-pyrrolizin-7a(5H)-yl)methoxy)quinazolin-7-yl)-4-methylaniline], the IC50 was in the range of 0.0001 to 10 µM.
Take `CCCc1cccc2[nH]cc(-c3ccc4c(N5C[C@H]6CC[C@@H](C5)N6)nc(OCC56CCCN5CCC6)nc4c3F)c12` [P-0598, 4-((1R,5S)-3,8-diazabicyclo[3.2.1]octan-3-yl)-8-fluoro-7-(4-propyl-1H-indol-3-yl)-2-((tetrahydro-1H-pyrrolizin-7a(5H)-yl)methoxy)quinazoline]: the 50% inhibitory concentration (IC50) lay within 0.0001 to 10 µM.
For the compound `Oc1cc(-c2ccc3c(N4C[C@H]5CC[C@@H](C4)N5)nc(N4CC5(CCNC5)C4)nc3c2F)c2ccccc2c1` [P-0599], the IC50 is 0.0001 to 10 µM.
As to `Oc1cc(-c2ccc3c(N4C[C@H]5CC[C@@H](C4)N5)nc(N4CC5(CCCNC5)C4)nc3c2F)c2ccccc2c1` [P-0600, 4-(4-((1R,5S)-3,8-diazabicyclo[3.2.1]octan-3-yl)-8-fluoro-2-(2,6-diazaspiro[3.5]nonan-2-yl)quinazolin-7-yl)naphthalen-2-ol], the IC50 was 0.0001 to 10 µM.
Turning to `CNC1CN(c2nc(N3C[C@H]4CC[C@@H](C3)N4)c3ccc(-c4cc(O)cc5ccccc45)c(F)c3n2)C1` [P-0601, 4-(4-((1R,5S)-3,8-diazabicyclo[3.2.1]octan-3-yl)-8-fluoro-2-(3-(methylamino)azetidin-1-yl)quinazolin-7-yl)naphthalen-2-ol], the half-maximal inhibitory concentration (IC50) fell in the range of 0.0001 to 10 µM.
With `Oc1cc(-c2ccc3c(N4C[C@H]5CC[C@@H](C4)N5)nc(N4CC(N5CCC(O)C5)C4)nc3c2F)c2ccccc2c1` (stereo partly drawn) [P-0602, 1-(1-(4-((1R,5S)-3,8-diazabicyclo[3.2.1]octan-3-yl)-8-fluoro-7-(3-hydroxynaphthalen-1-yl)quinazolin-2-yl)azetidin-3-yl)pyrrolidin-3-ol], the IC50 was in the range of 0.0001 to 10 µM.
Consider `Cc1nccc2[nH]cc(-c3ccc4c(N5C[C@H]6CC[C@@H](C5)N6)nc(OCC56CCCN5CCC6)nc4c3F)c12` [P-0605, 4-((1R,5S)-3,8-diazabicyclo[3.2.1]octan-3-yl)-8-fluoro-7-(4-methyl-1H-pyrrolo[3,2-c]pyridin-3-yl)-2-((tetrahydro-1H-pyrrolizin-7a(5H)-yl)methoxy)quinazoline], for which the IC50 fell in the range of 10 to 100 µM.
The figure for `OCCCc1cccc2[nH]cc(-c3ccc4c(N5C[C@H]6CC[C@@H](C5)N6)nc(OCC56CCCN5CCC6)nc4c3F)c12` [P-0606, 3-(3-(4-((1R,5S)-3,8-diazabicyclo[3.2.1]octan-3-yl)-8-fluoro-2-((tetrahydro-1H-pyrrolizin-7a(5H)-yl)methoxy)quinazolin-7-yl)-1H-indol-4-yl)propan-1-ol] is 0.0001 to 10 µM.
For `Nc1ccc(F)c(-c2c(F)cc3c(N4C[C@H]5CC[C@@H](C4)N5)nc(OCC45CCCN4CCC5)nc3c2F)c1` [P-0608, 3-(4-((1R,5S)-3,8-diazabicyclo[3.2.1]octan-3-yl)-6,8-difluoro-2-((tetrahydro-1H-pyrrolizin-7a(5H)-yl)methoxy)quinazolin-7-yl)-4-fluoroaniline], the half-inhibitory concentration (IC50) lay in the range of 0.0001 to 10 µM.

For the origin of these results see patent publication US20230081426A1, “COMPOUNDS AND METHODS FOR KRAS MODULATION AND INDICATIONS THEREFOR” (Plexxikon Inc., priority 2020, published 2023).
